Biological target: T1, Peroxisome proliferator-activated receptor gamma (Homo sapiens, UniProt P37231)
T1 sequence (P37231 whole entry): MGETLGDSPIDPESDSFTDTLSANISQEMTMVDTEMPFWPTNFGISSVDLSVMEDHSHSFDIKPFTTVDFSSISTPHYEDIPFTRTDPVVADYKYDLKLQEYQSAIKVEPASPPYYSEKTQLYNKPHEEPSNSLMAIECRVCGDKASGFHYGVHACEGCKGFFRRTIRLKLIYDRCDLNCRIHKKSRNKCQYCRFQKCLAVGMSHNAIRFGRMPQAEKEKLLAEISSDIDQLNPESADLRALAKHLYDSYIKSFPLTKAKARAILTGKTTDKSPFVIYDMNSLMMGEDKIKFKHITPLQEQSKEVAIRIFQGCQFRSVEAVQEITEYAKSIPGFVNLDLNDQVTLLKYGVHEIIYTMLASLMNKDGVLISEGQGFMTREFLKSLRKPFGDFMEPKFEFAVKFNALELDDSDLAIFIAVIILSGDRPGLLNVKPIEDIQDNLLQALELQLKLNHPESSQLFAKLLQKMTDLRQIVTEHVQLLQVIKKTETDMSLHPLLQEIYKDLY
Description: Displacement of [3H]rosiglitazone from PPAR gamma

| SMILES | IC50 |
| --- | --- |
| COc1cc(C2NC(=O)NC(C)=C2C(=O)O)ccc1OCCOc1cc(C)nc2ccccc12 (centres undefined) | 940 nM |
| CC1=C(C(=O)O)C(c2ccc(OCCCOc3cc(C)nc4ccccc34)cc2)NC(=O)N1 (centres undefined) | 750 nM |
| CC1=C(C(=O)O)C(c2ccc(OCCOc3cc(C)nc4ccccc34)cc2)NC(=O)N1 (centres undefined) | 760 nM |
| CC1=C(C(=O)O)C(c2ccc(OCCOc3cccc4ccc(C)nc34)cc2)NC(=O)N1 (centres undefined) | 600 nM |
| CC1=C(C(=O)O)C(c2ccc(OCCCn3ccc4cccnc43)cc2)NC(=O)N1 (centres undefined) | 750 nM |
| COc1cc(C2NC(=O)NC(C)=C2C(=O)O)ccc1OCCn1c2ccccc2c2ccccc21 (centres undefined) | 820 nM |
| CC1=C(C(=O)O)C(c2ccc(OCCn3ccc4cccnc43)cc2)NC(=O)N1 (centres undefined) | 1000 nM |
| CC1=C(C(=O)O)C(c2ccc(OCCOc3ccc(C(=O)c4ccc(Cl)cc4)cc3)cc2)NC(=O)N1 (centres undefined) | 930 nM |
| COc1cc(C2NC(=O)NC(C)=C2C(=O)O)ccc1OCCOc1cccc2ccc(C)nc12 (centres undefined) | 800 nM |
| CC1=C(C(=O)O)C(c2ccc(OCCOc3cccc4[nH]c5ccccc5c34)cc2)NC(=O)N1 (centres undefined) | 1000 nM |
| COc1cc(C2NC(=O)NC(C)=C2C(=O)O)ccc1OCCn1ccc2cccnc21 (centres undefined) | 720 nM |
| CC1=C(C(=O)O)C(c2ccc(OCCn3c4ccccc4c4ccccc43)cc2)NC(=O)N1 (centres undefined) | 900 nM |
| COc1cccc2c1c1ccccc1n2CCOc1ccc(C2NC(=O)NC(C)=C2C(=O)O)cc1 (centres undefined) | 800 nM |
| CC1=C(C(=O)O)C(c2ccc(OCCCOc3cccc4[nH]c5ccccc5c34)cc2)NC(=O)N1 (centres undefined) | 900 nM |

From ChEMBL document CHEMBL1145436, “Design and synthesis of 6-methyl-2-oxo-1,2,3,4-tetrahydro-pyrimidine-5-carboxylic acid derivatives as PPARgamma activators” (Bioorg Med Chem Lett, 2007)
